Values of other authors as cited in US20100099088A1, “RELIABLE DETECTION OF VANCOMYCIN-INTERMEDIATE STAPHYLOCOCCUS AUREUS” (priority 2006, published 2010).
Where two headings read alike, the source gives them in different places.

Experiments:
[1] = tested on: Staphylococcus aureus strains (MRSA, hVISA/VISA, in vitro-selected); conditions: cited from earlier work; on CLSI Etest category: key: S = sensitive; I = intermediate; R = resistant
Japanese strain Mu3 = conditions: strain Mu3, tests as susceptible; cited from earlier work
[2] = strain 160013 (NRS283), 0.5 McF inoculum
[3] = strain BR 5 (NRS56), 0.5 McF inoculum
[4] = strain HIP07930 (NRS22), 0.5 McF inoculum
[5] = strain HIP09433 (NRS27), 0.5 McF inoculum
[6] = strain HIP09662 (NRS28), 0.5 McF inoculum
[7] = strain HIP12864 (NRS402), 0.5 McF inoculum
[8] = strain LIM 1 (NRS35), 0.5 McF inoculum
[9] = strain LIM 3 (NRS37), 0.5 McF inoculum
[10] = strain LY-1999 0620-01 (NRS63), 0.5 McF inoculum
[11] = strain LY-1999 0620-02 (NRS64), 0.5 McF inoculum
[12] = strain Mu3 (NRS2), 0.5 McF inoculum
[13] = strain Mu50 (NRS1), 0.5 McF inoculum
[14] = strain NRS118, 0.5 McF inoculum
[15] = strain SA MER (NRS11), 0.5 McF inoculum
[16] = strain SA MER-S20 (NRS14), 0.5 McF inoculum

Question: For CN[C@H](CC(C)C)C(=O)N[C@H]1C(=O)N[C@@H](CC(N)=O)C(=O)N[C@H]2C(=O)N[C@H]3C(=O)N[C@H](C(=O)N[C@H](C(=O)O)c4cc(O)cc(O)c4-c4cc3ccc4O)[C@H](O)c3ccc(c(Cl)c3)Oc3cc2cc(c3O[C@@H]2O[C@H](CO)[C@@H](O)[C@H](O)[C@H]2O[C@H]2C[C@](C)(N)[C@H](O)[C@H](C)O2)Oc2ccc(cc2Cl)[C@H]1O [vancomycin], which “CLSI Etest MIC” value [1, 2] is on record?
Answer: 4 mg/L

Question: What about the “CLSI Etest category” value [1, 2] of the same molecule?
Answer: I

Question: And the “CLSI Etest MIC” value [1, 3]?
Answer: 8 mg/L

Question: What about the “CLSI Etest category” value [1, 3] of the same molecule?
Answer: I

Question: What about the “CLSI Etest MIC” value [1, 4] of the same molecule?
Answer: 4 mg/L

Question: And the “CLSI Etest category” value [1, 4]?
Answer: I

Question: And the “CLSI Etest MIC” value [1, 5]?
Answer: 4 mg/L

Question: What about the “CLSI Etest category” value [1, 5] of the same molecule?
Answer: I

Question: And the “CLSI Etest MIC” value [1, 6]?
Answer: 3 mg/L

Question: What about the “CLSI Etest category” value [1, 6] of the same molecule?
Answer: S

Question: What about the “CLSI Etest MIC” value [1, 7] of the same molecule?
Answer: 8 mg/L

Question: And the “CLSI Etest category” value [1, 7]?
Answer: I

Question: And the “CLSI Etest MIC” value [1, 8]?
Answer: 2 mg/L

Question: And the “CLSI Etest category” value [1, 8]?
Answer: S

Question: What about the “CLSI Etest MIC” value [1, 9] of the same molecule?
Answer: 4 mg/L

Question: What about the “CLSI Etest category” value [1, 9] of the same molecule?
Answer: I

Question: And the “CLSI Etest MIC” value [1, 10]?
Answer: 8 mg/L

Question: What about the “CLSI Etest category” value [1, 10] of the same molecule?
Answer: I

Question: And the “CLSI Etest MIC” value [1, 11]?
Answer: 1.5 mg/L

Question: And the “CLSI Etest category” value [1, 11]?
Answer: S

Question: What about the “CLSI Etest MIC” value [1, 12] of the same molecule?
Answer: 4 mg/L

Question: What about the “CLSI Etest category” value [1, 12] of the same molecule?
Answer: I

Question: And the “CLSI Etest MIC” value [1, 13]?
Answer: 8 mg/L

Question: What about the “CLSI Etest category” value [1, 13] of the same molecule?
Answer: I

Question: What about the “CLSI Etest MIC” value [1, 14] of the same molecule?
Answer: 8 mg/L

Question: What about the “CLSI Etest category” value [1, 14] of the same molecule?
Answer: I

Question: And the “CLSI Etest MIC” value [1, 15]?
Answer: 2 mg/L

Question: And the “CLSI Etest category” value [1, 15]?
Answer: S

Question: And the “CLSI Etest MIC” value [1, 16]?
Answer: 8 mg/L

Question: And the “CLSI Etest category” value [1, 16]?
Answer: I

Question: And the “MIC (minimum inhibitory concentration)” value (Japanese strain Mu3)?
Answer: < 4 mg/L
